Experimental data from PubChem BioAssay AID1264 (University of Pittsburgh Molecular Library Screening Center, 2008).
“And” between values parts separate entries of the source, which are not always exact repeats. Equal entries are not always repeated. The source made the active and inactive calls.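 How the source made its calls: active means every replicate of triplicate confirmation testing shows 50% or greater inhibition; inconclusive means one or more replicate tests show below 50% inhibition; inactive means every triplicate test shows below 50% inhibition.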

Biological target: Serine/threonine-protein kinase PLK1 (Homo sapiens) (UniProt P53350)
Sequence (P53350 whole entry, looked up): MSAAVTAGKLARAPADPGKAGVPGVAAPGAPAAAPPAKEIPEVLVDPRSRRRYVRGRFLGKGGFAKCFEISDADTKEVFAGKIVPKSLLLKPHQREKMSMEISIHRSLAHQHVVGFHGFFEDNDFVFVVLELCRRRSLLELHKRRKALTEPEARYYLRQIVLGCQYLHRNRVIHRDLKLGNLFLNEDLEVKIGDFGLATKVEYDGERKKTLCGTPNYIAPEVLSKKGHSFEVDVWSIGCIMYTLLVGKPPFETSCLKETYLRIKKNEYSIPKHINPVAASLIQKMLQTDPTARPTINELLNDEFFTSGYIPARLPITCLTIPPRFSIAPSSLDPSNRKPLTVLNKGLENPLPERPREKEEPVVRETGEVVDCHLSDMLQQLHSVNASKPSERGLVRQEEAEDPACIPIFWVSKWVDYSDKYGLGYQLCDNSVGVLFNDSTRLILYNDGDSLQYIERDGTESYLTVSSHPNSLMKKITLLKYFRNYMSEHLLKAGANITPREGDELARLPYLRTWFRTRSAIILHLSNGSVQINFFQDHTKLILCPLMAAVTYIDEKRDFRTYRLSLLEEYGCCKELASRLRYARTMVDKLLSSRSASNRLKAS
Experiment: PLK1 kinase activity inhibitors, confirmation, biochemical, analogue series, repeat of primary screen (AID 1264)
Settings: recombinant PLK1 kinase, TR-FRET phosphopeptide binding; at 10 µM; stronger effect = higher value

Row | Compound | inhibition
1 | CCOC(=O)c1cccc(NC(=O)c2ccc(F)cc2F)c1 | -1.61% (inactive)
2 | CCCCOC(=O)c1ccc(NC(=O)c2c(O)[nH]c(=O)[nH]c2=O)cc1 | 13.1% (inactive)
3 | FC(F)(F)c1ccccc1C1=CC(c2ccccc2)n2ncnc2N1 (stereo unspecified) | -2.08% (inactive)
4 | O=C(Nc1ccccc1)c1c(O)[nH]c(=O)[nH]c1=O | 0.179% (inactive)
5 | O=C(NCCc1nc(-c2ccccc2)no1)c1ccccc1 | -5.02% (inactive)
6 | CCOC(=O)c1cccc(NC(=O)c2c(NCc3ccccc3)[nH]c(=O)[nH]c2=O)c1 | -25.1% (inactive)
7 | CCOc1ccc(NC(=O)c2c(N)n(C)c(=O)[nH]c2=O)cc1 | -9.99% (inactive)
8 | Cc1ccc(C2=CC(c3ccccc3)n3ncnc3N2)cc1 (stereo unspecified) | -16.9% (inactive)
9 | CCOC(=O)c1cccc(NC(=O)c2c(O)[nH]c(=O)[nH]c2=O)c1 | -17.6% (inactive)
10 | CCOc1ccc(NC(=O)c2ccc(F)cc2F)cc1 | -2.77% (inactive)
11 | CC(C)C(=O)NCCc1nc(-c2ccccc2)no1 | -10.1% (inactive)
12 | O=C(NCCc1nc(-c2ccccc2Cl)no1)c1ccccc1 | -12.8% (inactive)
13 | Cc1ccc(C2=CC(c3ccccc3)n3ncnc3N2)c(C)c1 (stereo unspecified) | -6.91% (inactive)
14 | Cn1cccc1C1C=C(c2ccc(C(C)(C)C)cc2)Nc2ncnn21 (stereo unspecified) | -5.07% (inactive)
15 | CCCCOC(=O)c1ccc(NC(=O)c2c(N)n(C)c(=O)[nH]c2=O)cc1 | -5.01% (inactive)
16 | CCOC(=O)CCCCCNC(=O)c1ccc(F)cc1F | -1.76% (inactive)
17 | Cc1ccc(NC(=O)c2ccc(F)cc2F)cc1 | 0.531% (inactive)
18 | O=C(Nc1ccccc1)c1c(O)[nH]c(=S)[nH]c1=O | 14.3% (inactive)
19 | Cn1c(N)c(S(=O)(=O)NCc2ccccc2)c(=O)n(C)c1=O | -15.5% (inactive)
20 | CCOC(=O)c1ccc(NC(=O)c2c(N)n(C)c(=O)n(C)c2=O)cc1 | -20.8% (inactive)
21 | O=C(NCCc1nc(-c2ccccc2Cl)no1)C1CCCCC1 | -35.6% (inactive)

Row | Compound | inhibition
22 | CC(C)(C)c1ccc(C2=CC(c3ccccc3)n3ncnc3N2)cc1 (stereo unspecified) | -7.88% (inactive)
23 | CCOC(=O)c1ccccc1NC(=O)c1c(N)n(C)c(=O)[nH]c1=O | -3.12% (inactive)
24 | Cc1cc(C)c(C2=CC(c3ccccc3)n3ncnc3N2)cc1C (stereo unspecified) | -3.17% (inactive)
25 | Cc1ccc(C2=CC(c3ccc(C)cc3)n3ncnc3N2)cc1 (stereo unspecified) | -1.39% (inactive)
26 | CCOC(=O)c1ccc(NS(=O)(=O)c2c(N)n(C)c(=O)n(C)c2=O)cc1 | -7.36% (inactive)
27 | CC(C)C(=O)NCCc1nc(-c2ccc(Cl)cc2)no1 | -14.7% (inactive)
28 | CC(=O)NCCc1nc(-c2ccc(Cl)cc2)no1 | 0.952% (inactive)
29 | CCC(=O)NCCc1nc(-c2ccccc2)no1 | -12.8% (inactive)
30 | CC(C)C(=O)NCCc1nc(-c2ccccc2Cl)no1 | -5.05% (inactive)
31 | CCOC(=O)c1ccccc1NC(=O)c1c(O)[nH]c(=S)[nH]c1=O | 19.1% (inactive)
32 | CCC1=CC(c2ccccc2)n2ncnc2N1 (stereo unspecified) | 27.4% (inactive)
33 | CC1=CC(c2ccccc2)n2ncnc2N1 (stereo unspecified) | 26% (inactive)
34 | CCCC(=O)NC(C)c1nc(-c2ccc(C)cc2)no1 (stereo unspecified) | -6.32% (inactive)
35 | CCOC(=O)c1ccc(NC(=O)c2c(NCc3ccccc3)[nH]c(=O)[nH]c2=O)cc1 | -44% (inactive)
36 | COc1ccc(C2C=C(c3ccccc3)Nc3ncnn32)cc1 (stereo unspecified) | -8.01% (inactive)
37 | CCOC(=O)CCCCCNC(=O)c1c(O)[nH]c(=O)[nH]c1=O | -9.36% (inactive)
38 | COc1ccc(C2C=C(C)Nc3ncnn32)cc1 (stereo unspecified) | 5.53% (inactive)
39 | O=C(NCCc1nc(-c2ccccc2)no1)c1ccco1 | -16.1% (inactive)
40 | C/C(=N\NC(=O)c1ccncc1)c1c(O)[nH]c(=O)[nH]c1=O | -1.95% (inactive)
41 | C1=C(c2ccccc2)Nc2ncnn2C1c1ccccc1 (stereo unspecified) | -5.72% (inactive) and -12.8% (inactive)
42 | CCCCOC(=O)c1ccc(NC(=O)c2ccc(F)cc2F)cc1 | -1.8% (inactive)

Row | Compound | inhibition
43 | CCOc1ccc(C2=CC(c3ccccc3)n3ncnc3N2)cc1 (stereo unspecified) | -6.38% (inactive)
44 | CCOc1ccc(NC(=O)c2c(O)[nH]c(=O)[nH]c2=O)cc1 | 4.03% (inactive)
45 | CC(C)(C)C(=O)NCCc1nc(-c2ccccc2)no1 | 0.116% (inactive)
46 | CCOC(=O)c1ccc(NC(=O)c2ccc(F)cc2F)cc1 | 4.42% (inactive)
47 | Cc1cc(=O)n2[nH]cnc2n1 | 19.1% (inactive)
48 | Cc1cccc(N/N=C/c2c(O)[nH]c(=S)[nH]c2=O)c1 | -7.37% (inactive)
49 | CC(C)(C)c1ccc(C2=CC(c3ccccc3F)n3ncnc3N2)cc1 (stereo unspecified) | -3.46% (inactive)
50 | CCOC(=O)c1cccc(NC(=O)c2c(N)n(C)c(=O)[nH]c2=O)c1 | -1.45% (inactive)
51 | CCOC(=O)c1ccc(NC(=O)c2c(N)n(C)c(=O)[nH]c2=O)cc1 | -19.2% (inactive)
52 | CCOC(=O)c1ccccc1NC(=O)c1c(O)[nH]c(=O)[nH]c1=O | -7.12% (inactive)
53 | CCC(=O)NCCCc1nc(-c2ccccc2)no1 | -3.38% (inactive)
54 | CCOC(=O)c1ccc(NC(=O)c2c(O)[nH]c(=O)[nH]c2=O)cc1 | -4.9% (inactive)
55 | Cn1c(N)c(C(=O)Nc2ccccc2)c(=O)[nH]c1=O | 8.78% (inactive)
56 | CCOC(=O)c1ccccc1NC(=O)c1ccc(F)cc1F | -4.35% (inactive)
57 | CCOC(=O)c1ccc(NC(=O)c2c(N)n(Cc3ccccc3)c(=O)[nH]c2=O)cc1 | -23.9% (inactive)
58 | C1=C(c2ccccc2)Nc2ncnn2C1 | 12.8% (inactive)
59 | CC1=CC(c2ccccc2)n2nc(N)nc2N1 (stereo unspecified) | -13.7% (inactive)
60 | O=C(Nc1ccccc1)c1ccc(F)cc1F | 24.9% (inactive)
61 | Cc1ccc(C2C=C(c3ccccc3)Nc3ncnn32)cc1 (stereo unspecified) | -8.59% (inactive)
